Laboratory results taken from patent US20040224935A1, “Topical antiandrogenic steroids” (Endorecherche, Inc., priority 2003, published 2004).
pIC50: −log10 of the molar value. Where two headings read alike, the source gives them in different places.

What was measured:
rat seminal vesicle = assay: Systemic antiandrogenic activity in immature male rats (castrated, DHT implant), seminal vesicle weight; details: po, 168 h, 0.5 mg/animal per os once daily 7 days, % efficacy relative to inhibition by flutamide, read-out: RAT (in vivo) (systemic) SV Inh % inh. (0.5 mg, per os)
Method: Column 6 represents the % of antiandrogenic efficacy on the rat seminal vesicle, relative to the percentage of inhibition by flutamide calculated by the formula:
(§1) % efficacy versus Flu=100×% inhib (compound)/% inhib (Flu).
(§2) Where the percentage of inhibition (% inhib) is calculated by the following formula:
(§3) % Inhib=100−[W (compound)−W (control)/W (DHT)−W (control)]×100.
W is the weight of the seminal vesicle.
(§4) C Systemic antiandrogenic activity (immature male rats)
(§5) 1. Animals Immature male rats (Crl:CD(SD)Br) 22 to 24-day old were obtained from Charles-River, Inc. (St-Constant, Quebec, Canada) and housed up to 5 per cage in plastic bins in a temperature (23±1° C.)—and light (12 h light/day, lights on at 7h15)—controlled environment. The rats were fed rodent chow and tap water ad libitum. The day following their arrival, the animals were orchidectornized (CX) under Isoflurane anesthesia via scrotal route and randomly assigned to groups of 5 animals. One silastic implant of dihydrotestosterone (DHT; length of implant: 1 cm) was inserted subcutaneously in the dorsal area of animals at the time of orchidectomy. One group of 5 animals was CX only as control (no DHT implant inserted).
(§6) 2. Treatments To evaluate the antiandrogenic activity, tested compounds were administered orally by gavage once daily at a dose of 0.5 mg/animal for 7 days (SD 1 to 7). Compounds were solubilized (when possible) in dimethylsulfoxide (DMS, 10% final concentration) and administered as suspension in 0.4% methylcellulose. Rats in CX control and CX+DHT control groups received the vehicle alone during the 7-day period. One group of animals received the antiandrogen Flutamide as reference. The animals were killed by cervical dislocation under isoflurane anesthesia on the 8th morning following castration. The ventral prostate and seminal vesicles were rapidly dissected and weighed.
(§7) 3. Calculations and Statistical Analysis The percentage of inhibition (% inhib) is calculated by the following formula:
(§8) This percentage is reported as % of efficacy, relatively to the percentage of inhibition of flutaride calculated by the formula: % efficacy versus Flu=100×% inhib (compound)/% inhib (Flu).
(§9) W is the weight of the prostate or the seminal vesicle.

rat prostate = assay: Systemic antiandrogenic activity in immature male rats (castrated, DHT implant), prostate weight; details: po, 168 h, 0.5 mg/animal per os once daily 7 days, % efficacy relative to inhibition by flutamide, read-out: RAT (in vivo) (systemic) Prostate Inh. % inh. (0.5 mg, per os)
Method: Column 5 represents the % of antiandrogenic efficacy in rat prostate, relatively to the percentage of inhibition of flutamide calculated by the formula:
as §1, §2
% lnhib=100−[W (compound)−W (control)/W (DHT)−W (control)]×100.
W is the weight of the prostate.
as §4, §5, §6, §7, §3, §8, §9

[1] = test system: Shionogi mouse mammary carcinoma cells; assay: In vitro androgenic/antiandrogenic activity, DHT-stimulated Shionogi cell number; format: cell-based; details: for IC50: Mus musculus, read-out: Shionogis (In Vitro) IC50(nM), inhibition of DHT-stimulated cell number, 10-12 days; for Shionogis (In Vitro) VS OH-FLU (ratio of Ki of hydroxyflutamide versus tested compound): OH-Flu = 1, DHT-stimulated cell number, higher values preferable
[2] = test system: Hamster's ear sebaceous glands; assay: Topical antiandrogenic activity, histomorphometry of the ear sebaceous glands in the hamster; format: in vivo, Male Golden Syrian hamster; details: Mesocricetus auratus, 336 h, once daily, 14 days, sebaceous gland area, read-out: Antiandrogenic activity in Hamster's sebaceous glands Inh. Vs Cx (%); for inhibition in vivo at 0.001 mg: dose 1 μg applied topically on left ear of intact male hamster; for inhibition in vivo at 0.003 mg: dose 3 μg applied topically on left ear of intact male hamster; for inhibition in vivo at 0.01 mg: dose 10 μg applied topically on left ear of intact male hamster
Excerpt: Column 3 represents the dose of antiandrogenic compounds applied on the left ear of the intact male hamster.
Column 4 represents the relative inhibition in % of the area of the sebaceous gland of the left ear versus control hamster. Higher values approaching the effect of castration are preferable
The Antiandrogenic activity of antiandrogenic compounds has been measured using a Histomorphometry assay of the Ear Sebaceous Glands in the Hamster
1. Animals Male Golden Syrian, Hamster (SYR) of 110-120 g were obtained from Harlan Sprague Dawlay (Madison, USA) and housed up to 2 per cage in plastic cages in a temperature (22±3° C.) and light (12 h light/day, lights on at 7 h 15) in a controlled environment. The hamsters were fed with Certified Rodent Diet 5002 (pellet) and tap water ad libitum. The animals were acclimated for at least five days before the beginning of the study. Animals were randomly assigned to groups of eight hamsters. One group of hamsters was castrated under isoflurane-induced anesthesia on the day of dosing initiation (SD 1) and used as control group.
2. Treatments To evaluate the antiandrogenic activity, tested compounds were applied topically on the inner part of the left ear, once daily, for 14 days. Ten μL solution of acetone: ethanol: propylene Glycol (1:1:2; v:v:v) containing 0.1, 0.3 or 1.0 mg/mL of tested compound was carefully applied onto a region between the two cartilage ridges of the ventral surface of left pinna. For animals in the castrated and intact control groups ten-μL vehicle was applied onto the left ear. No solution will be applied on the right ear for any animals of the study.
3. Postmortem Observations and Measurements On Study Day 15, the hamsters were euthanized by cervical dislocation under isoflurane anesthesia. The left and right ears were collected attached together by the head skin, flat fixed on a paper and were immersed in 10% neutral buffered formalin. From the flat fixed ear and using paper puncture that makes a hole of 6 mm, the region where solution was applied was collected from each ear. Using a scalpel blade, the collected 6 mm round ear specimen was cut in the middle between the two cartilage ridges. The two equal parts of the ear round specimen were embedded in paraffin. After processing the tissue, the two parts were vertically embedded parallel to each other in a way that the flat 6 mm area was facing out. From each paraffin block, one section (5 μm thick) was cut and collected on a glass slide. Thus, each slide contained two elongated sections of 6 mm length. Slides were stained with hematoxylin and eosin.
4. Analysis of Sebaceous Gland Area Using the video camera and objective lens number X5 of the light microscope, the resulting field that appears on the screen has a length of 0.953 mm. From the glass slide, when we have examined the first 6 mm long section from the left to the right, the first and second fields were ignored and the third and fourth fields were captured for analysis by the image analyzer. Each field has the length of 0.953 mm. With the help of the screen mouse, the sebaceous glands within the whole field length (0.953mm) were marked. Also, an area with the length of the whole field and the height between stratum granulosum and the upper edge of the cartilage was drawn.
The image analyzer calculated the total area of the sebaceous glands (μm^2) in each examined field. We also obtained the area, which has the length of 0.953 mm and the height between stratum granulosum and the cartilage. In addition, the percentage of the area occupied by the glands was obtained. Thus, for each ear, two sections were cut and two fields from each section were analyzed. The total of the four readings was averaged and the mean standard of error calculated by the image analyzer. The results were expressed in μm^2 as the total surface of glands per field and also as percentage of the area occupied by the glands.

Row | SMILES | inhibition in vivo at 0.5 mg (rat seminal vesicle) [%] | inhibition in vivo at 0.5 mg (rat prostate) [%] | IC50 [1] [nM] | pIC50 ([1]; read-out: Shionogis (In Vitro) IC50, inhibition of DHT-stimulated cell number, 10-12 days) | inhibition in vivo at 0.001 mg [2] [%] | inhibition in vivo at 0.003 mg [2] [%] | inhibition in vivo at 0.01 mg [2] [%] | Shionogis (In Vitro) VS OH-FLU (ratio of Ki of hydroxyflutamide versus tested compound) [1]
1 | CC1(C)CC2C3CCc4c(C#N)cccc4C3CC[C@]2(C)[C@H]1O (stereo partly drawn) [EM-2557] | 0 | 6 | 15 | 7.74 | 52.4 | 42.8 | 66.6 | 
2 | CC#C[C@@H]1CC2C3CCc4c(C#N)cccc4C3CC[C@]2(C)[C@H]1O (stereo partly drawn) [EM-2627] | 25 | 0 | 7.8 |  | 14.3 | 42.8 | 66.6 | 8.3
3 | CCC=C[C@]1(O)CCC2C3CCc4c(C#N)cccc4C3CC[C@@]21C (stereo partly drawn) [EM-3144] | 12 | 8 | 4.4 |  | 9.5 | 71.4 | 71.4 | 8.5
4 | CCCC#C[C@@H]1CC2C3CCc4c(C#N)cccc4C3CC[C@]2(C)[C@H]1O (stereo partly drawn) [EM-3165] | 14 | 1 | 15.1 |  | 19 | 14.3 | 23.8 | 7.2
5 | CC(C)C#C[C@]1(O)CCC2C3CCc4c(C#N)cccc4C3CC[C@@]21C (stereo partly drawn) [EM-3166] | 15 | 0 | 21.8 |  | 47.6 | 66.6 | 76.2 | 5.0
6 | CC(=O)O[C@H]1C(C)(C)CC2C3CCc4c(C#N)cccc4C3CC[C@@]21C (stereo partly drawn) [EM-3178] | 0 | 0 | 17 |  | 9.5 | 9.5 | 38.1 | 4.1
7 | CC[C@@]1(C)C[C@H]2[C@@H]3CCc4c(C#N)cccc4[C@H]3CC[C@]2(C)C1=O [EM-3180, 4-cyano-16α-methyl-16β-ethyl-1,3,5(10)-estratrien-17-one] | 0 | 0 | 35 |  | 57.1 | 90.5 | 95.2 | 2
8 | CC[C@]1(C)CC2C3CCc4c(C#N)cccc4C3CC[C@]2(C)C1=O (stereo partly drawn) [EM-3217] |  |  |  |  | 4.8 | 0 | 42.8 | ˜1
9 | CC[C@@]1(C)C[C@H]2[C@@H]3CCc4c(C#N)cccc4[C@H]3CC[C@]2(C)[C@H]1O [EM-3221, 4cyano-16α-methyl-16β-ethyl-1,3,5(10)-estratrien-17β-ol] | 1 | 0 | 3.2 |  | 0 | 9.5 | 33.3 | 6.6
10 | C[C@@H]1CC2C3CCc4c(C#N)cccc4C3CC[C@]2(C)C1=O (stereo partly drawn) [EM-3223] | 18 | 0 |  |  | 25.9 | 37 | 59.2 | 
11 | CC[C@]1(C)CC2C3CCc4c(C#N)cccc4C3CC[C@]2(C)[C@H]1O (stereo partly drawn) [EM-3226] | 0 | 0 | 3.6 |  | 7.4 | 29.6 | 33.3 | 5.9
12 | CCC1(CC)CC2C3CCc4c(C#N)cccc4C3CC[C@]2(C)C1=O (stereo partly drawn) [EM-3411] | 10 | 0 |  |  | 3.7 | 14.8 | 62.9 | ˜1
13 | CC1(C)CC2C3CCc4c(Cl)cccc4C3CC[C@]2(C)[C@H]1O (stereo partly drawn) [EM-3415] | 0 | 0 | 26 |  | 0 | 11.1 | 44.4 | 2.5
14 | C[C@]12CCC3c4cccc(C#N)c4CCC3C1C[C@@H](C#CC1CC1)[C@@H]2O (stereo partly drawn) [EM-3473] | 0 | 0 | 9.3 |  | 7.4 | 0 | 14.8 | 9
15 | CC1(C)C[C@H]2[C@@H]3CCc4cc(F)ccc4[C@H]3CC[C@]2(C)[C@H]1O [EM-3497, 3fluoro-16,16-dimethyl-1,3,5(10)-estratrien-17β-ol] | 0 | 0 | 46 |  | 62.9 | 62.9 | 77.7 | 1.5
